The target of assay [1] is T1, Human Topoisomerase IIα (Homo sapiens, UniProt P11388).
T1 construct: purchased USB, Affymetrix, Waltham, MA, USA
Description: Topoisomerase II relaxation assay (supercoiled pBR322). It counts as biochemical. In short, it runs like this:
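Compounds (in 2% v/v DMSO) pre-incubated 15 min with human Topo IIα and supercoiled pBR322 DNA, then reacted 30 min at 37 °C and stopped with 7 mM EDTA. Relaxed vs supercoiled DNA resolved on 1% TAE-agarose, ethidium bromide-stained and imaged. Etoposide served as positive control.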

Assay [2] has as its system LO2 cells. Description: MTT cytotoxicity assay, normal hepatocyte LO2. The class given is cell-based. The note with it: Homo sapiens, L02, 48 h exposure, normal hepatocyte cell line. The essentials:
(§1)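 Cells in DMEM with 10% FBS were seeded and allowed to attach for 24 h. They were then exposed to compound dilutions for 48 h at 37 °C, 5% CO2. Viability was measured by MTT (4 h), with formazan dissolved in DMSO and read at 570 nm.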

For assay [3], the system named is SMMC-7721 cells. Description: ROS generation assay (DCFH-DA, flow cytometry). It counts as cell-based, human. The note with it: 48 h, control 3.97%. The method, then: Reactive oxygen species (ROS), which can exert oxidative stress to cells and lead to disturbances in mitochondrial membrane potential, are important mediators for the induction of apoptosis in many cancer cells. To determine whether the apoptosis induced by compound 5f was associated with intracellular ROS level, SMMC-7721 cells treated with different concentrations of 5f were stained with the fluorescent probe DCFH-DA and analyzed by flow cytometry.
ROS generation assay was performed by using the reactive oxygen species assay kit (Beyotime Biotech., Shanghai, China). Intracellular ROS generation was tested through dichlorodihydro fluorescein diacetate (DCFH-DA) assay. DCFH-DA is taken up by SMMC-7721 cells, and then activated by esterase-mediated cleavage of acetate to form dichlorodihydro fluorescein (DCFH), which is trapped in the cells. DCFH is converted to fluorescein DCF in the presence of ROS. SMMC-7721 cells were seeded in six-well plates and incubated with different concentrations of compound 5f for 48 h. After removing the compound solution, cells were treated with 10 μM of DCFH-DA at 37 °C for 20 min. Subsequently, the cells were washed with PBS for three times and then exposed to light. Immediately after light exposure, the fluorescence intensity of dichlorofluorescein (DCF) was measured with excitation at 488 nm and emission at 525 nm by a flow cytometry (Becton-Dickinson FACSCalibur, Franklin Lakes, NJ, USA).
A general note: Flow cytometry measures light scatter and fluorescence of single cells or particles in a stream.

The test system of assay [4] is HepG2 cells. Description: MTT cytotoxicity assay, HepG2. It counts as cell-based, human. The note with it: 48 h exposure. In short, it runs like this:
as §1

Assay [5] concerns SMMC-7721 cells. The assay can be described thus: MTT cytotoxicity assay, SMMC-7721. The class given is cell-based, human. The note with it: 48 h exposure. The essentials: as §1
In general terms: Tetrazolium dyes change colour on reduction, which living cells bring about.

Molecules are shown by their SMILES.

T1 sequence (P11388 whole entry): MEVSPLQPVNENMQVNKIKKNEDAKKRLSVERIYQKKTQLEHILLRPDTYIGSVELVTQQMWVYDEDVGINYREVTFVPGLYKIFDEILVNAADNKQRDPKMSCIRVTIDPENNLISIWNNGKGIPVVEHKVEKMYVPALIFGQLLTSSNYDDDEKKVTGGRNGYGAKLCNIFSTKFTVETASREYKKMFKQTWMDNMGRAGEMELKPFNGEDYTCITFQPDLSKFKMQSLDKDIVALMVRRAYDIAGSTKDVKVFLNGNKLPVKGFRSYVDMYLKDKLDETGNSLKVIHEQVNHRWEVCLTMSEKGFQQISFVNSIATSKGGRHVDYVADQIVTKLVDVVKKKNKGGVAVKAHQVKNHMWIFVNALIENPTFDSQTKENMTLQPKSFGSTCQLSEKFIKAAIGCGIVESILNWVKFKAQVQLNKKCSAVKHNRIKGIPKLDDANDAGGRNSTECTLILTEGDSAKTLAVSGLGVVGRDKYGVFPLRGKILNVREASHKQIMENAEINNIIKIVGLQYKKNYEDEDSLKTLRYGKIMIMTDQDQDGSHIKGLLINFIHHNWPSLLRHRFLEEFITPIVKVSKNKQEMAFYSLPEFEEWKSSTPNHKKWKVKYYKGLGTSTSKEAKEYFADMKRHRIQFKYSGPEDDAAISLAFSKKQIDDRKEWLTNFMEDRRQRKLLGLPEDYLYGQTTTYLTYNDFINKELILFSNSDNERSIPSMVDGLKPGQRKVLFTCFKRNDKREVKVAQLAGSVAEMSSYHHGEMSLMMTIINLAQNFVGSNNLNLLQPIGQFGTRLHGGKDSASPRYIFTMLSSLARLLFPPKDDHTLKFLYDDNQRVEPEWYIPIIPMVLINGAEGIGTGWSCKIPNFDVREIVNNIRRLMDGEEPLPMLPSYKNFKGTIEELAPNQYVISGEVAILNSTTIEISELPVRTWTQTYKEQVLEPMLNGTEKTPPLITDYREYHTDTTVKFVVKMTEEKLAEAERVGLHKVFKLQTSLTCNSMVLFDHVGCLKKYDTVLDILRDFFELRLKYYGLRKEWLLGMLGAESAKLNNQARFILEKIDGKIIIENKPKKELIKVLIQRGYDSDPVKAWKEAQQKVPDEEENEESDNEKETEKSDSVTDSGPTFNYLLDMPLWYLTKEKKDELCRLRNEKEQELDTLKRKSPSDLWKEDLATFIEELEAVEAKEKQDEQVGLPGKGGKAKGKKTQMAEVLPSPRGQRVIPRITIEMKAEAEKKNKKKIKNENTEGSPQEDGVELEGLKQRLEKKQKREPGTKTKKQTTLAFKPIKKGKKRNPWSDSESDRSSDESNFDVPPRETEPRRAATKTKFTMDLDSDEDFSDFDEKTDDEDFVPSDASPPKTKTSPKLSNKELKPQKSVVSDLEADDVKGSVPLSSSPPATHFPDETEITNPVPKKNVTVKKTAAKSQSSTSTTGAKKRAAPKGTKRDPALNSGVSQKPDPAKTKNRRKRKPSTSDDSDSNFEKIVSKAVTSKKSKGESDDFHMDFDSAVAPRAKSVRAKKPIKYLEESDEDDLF

A word on the inhibition: it is the change of the read-out against control, counted positive when it falls. For orientation: IC50 means the concentration at which inhibition is half-maximal. A lower IC50 goes with greater potency in that assay. In the case of `Cc1ccc2[nH]c3c(c2c1)C[C@@]1(C)C(CC[C@]2(C)C1CC=C1C4[C@@H](C)[C@H](C)CC[C@]4(C(=O)NCCCN4CCN(C)CC4)CC[C@]12C)C3(C)C` (stereo partly shown) [5f, N-(3-(4-Methylpiperazin-1-yl)propyl)-5′-methyl-1′H-ursa-2,12-dieno[3,2-b]indol-28-carboxamide], the inhibition at 20 µM in assay [1] (20 μM compound, read-out: Topo II Inhibition (%) 20 μM) was determined as 43.2%. In addition, in assay [1] (100 μM compound, read-out: Topo II Inhibition (%) 100 μM), the inhibition at 100 µM was determined as 83.5%. Moreover, the IC50 in assay [2] is 10.6 ± 0.52 µM; in assay [4] it was 0.91 ± 0.13 µM; in assay [4] (Homo sapiens, HepG2, 48 h) it was ~1 µM; in assay [5], 0.56 ± 0.08 µM; in assay [5] (Homo sapiens, SMMC-7721, 48 h), ~1 µM. The “cells with elevated ROS levels (% relative ROS raised cells)” value in assay [3] (0.3 μM) stood at 9.89%; in assay [3] (0.6 μM) it was 19.84%; in assay [3] (1.2 μM), 34.61%.

For the origin of these results see article PMC7215373, “Design, Synthesis, and Anticancer Evaluation of Novel Indole Derivatives of Ursolic Acid as Potential Topoisomerase II Inhibitors” (International Journal of Molecular Sciences, 2020).
